The values below come from PubChem BioAssay AID504581 (National Center for Advancing Translational Sciences (NCATS), 2011).

This data set relates to PBS pH 7.4 stability, 37 C, LC-MS/MS, 48 h. Nature of the data set: Inhibitors of 12-hLO: PBS Stability Profiling. Particulars: at 2 µM; active compounds read high. From the text:
Assay Provider: Holman, T.R., University of California, Santa Cruz Grant #: MH08128301 Screening Center PI: Austin, C.P. Screening Center: NIH Chemical Genomics Center [NCGC] Human lipoxygenase 12hLO is a member of the closely related lipoxygenase family of enzymes which catalyze the site-specific oxidation of arachidonic acid to various hormone precursor molecules and as such is a candidate for drug development in a variety of disease areas, such as cancer and inflammation. After qHTS, hits were confirmed in follow-up assays, and leads were optimized through SAR. The resulting lead compound was further characterized through a battery ADME-Tox experiments, and this assay describes its stability in PBS buffer. The stability of the lead compound in PBS buffer is tested because this parameter has a significant impact on many ADME-concerned properties of drugs, such as uptake, distribution, transport, and eventually bioavailability.
2microM of compound is incubated in PBS buffer at pH 7; the reference compound is procaine. Compounds are incubated at 37 deg C for the pre-determined time periods and the when aliquots are removed. Samples are analyzed with LC-MS/MS.

Regarding `CC(=O)NC(c1cccs1)c1cc(Br)c2cccnc2c1O` (stereo unspecified), the percent remaining is 100%.
